According to patent US20240174723A1, “STAPLED ANTIMICROBIAL PEPTIDES (STAMPS) AND USES THEREOF” (Lytica Therapeutics, Inc., priority 2021, published 2024):
≈ marks a conversion by molar mass, not a printed value. Positions of bridges follow the written chain, without caps; N, C: chain ends. Non-standard residues stand in square brackets, D forms with d. Residues, ends and D or L forms follow the SMILES beside them. S5 = C=CCCC[C@](C)(N)C(=O)O

Columns and labels:
[1] = test system: K. pneumoniae; assay type: cell-based, Klebsiella pneumoniae
Procedure, shortened: (§1)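 MIC by CLSI-adapted microbroth dilution; MHB or MHB II; inoculum 5×10^5 CFU/ml final; 20-24 h, 37 °C; endpoint = no visible growth.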

[2] = test system: A. baumannii; assay type: cell-based, Acinetobacter baumannii
Procedure, shortened: as §1

[3] = in vitro; assay type: cell-based; conditions: human
Method: Cell culture: RPTEC were maintained in MEM media supplemented with growth factors. HEPG2 cell line was maintained in Eagle's Minimum Essential Medium (EMEM) supplemented with fetal bovine serum to a final concentration of 10%.
90 minute cytotoxicity assay: Cells were plated in a 96-well format, and after overnight incubation, media was replaced with fresh media. Serial dilutions of StAMPs from a 5 mg/mL water stock, or vehicle, were added to the cells in a final volume of 100 μl. After incubating at 37° C. for 90 min, 50 μl of cell culture media was transferred to a clear 96-well plate, incubated with 50 μl of lactate dehydrogenase (LDH) assay reagent for 10 min, and absorbance measured at 490 nm on a microplate reader.
Renal toxicity was measured after 90 minutes of incubation, while liver toxicity was measured after 48 hours of incubation with StAMPs. N/A=not tested. The following apply to all peptides (i.e., StAMPs) listed in Tables A-C: Crosslinks (X^1—X^2 and X^3—X^4): (alk); N-terminus: —NH2; C-terminus: amidated with —NH2; counterion: Cl^−. The following apply to all peptides (i.e., StAMPs) listed in Table D: Crosslinks (X^1—X^2 and X^3—X^4): (alk); N-terminus: —NH2; C-terminus: as shown in table; counterion: Cl^−.
StAMP Micelle Formulation: DSPE-MPEG(2000) was suspended in buffered saline at 50-100 mg/mL overnight. StAMP stock solutions at 5-20 mg/mL in buffered saline were prepared and equal volumes of micelle and StAMP stock solution were mixed at the desired StAMP:Lipid ratio. Suspensions were allowed to sit for 5-10 minutes at room temperature before being used in in vitro and in vivo assays.
In Table E, the StAMP is StAMP 4 (Table A) and “Lipid”=DSPE-MPEG(2000).

[4] = in vitro; assay type: cell-based; conditions: human, Inhibitory Concentration at 50% Cytotoxicity (IC50) Human Liver Cells (HepG2)
Procedure, shortened: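 Cytotoxicity read by CellTiter-Glo luminescence after 48 h at 37 °C exposure to serially diluted StAMPs or vehicle. HepG2 cells were grown in EMEM plus 10% FBS and given 4 h to attach before dosing; peptides came from a 5 mg/mL aqueous stock.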

[5] = test system: S. aureus; assay type: cell-based, Staphylococcus aureus
Procedure, shortened: as §1

[6] = test system: P. aeruginosa; assay type: cell-based, Pseudomonas aeruginosa
Procedure, shortened: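 MIC taken as lowest peptide concentration with no visible growth after 20-24 h at 37 °C. Peptide serial dilutions from water stocks met P. aeruginosa inoculum (5×10^5 CFU/ml final) in MHB or MHB II, per a CLSI-adapted microbroth protocol.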

[7] = test system: E. coli; assay type: cell-based, Escherichia coli
Procedure, shortened: as §1

Row | SMILES | Minimum Inhibitory Concentration (MIC) K. pneumoniae [1] | Minimum Inhibitory Concentration (MIC) A. baumannii [2] | IC50 at 90 min [3] | IC50 at 48 hours [4] | Minimum Inhibitory Concentration (MIC) S. aureus [5] | Minimum Inhibitory Concentration (MIC) P. aeruginosa [6] | Minimum Inhibitory Concentration (MIC) E. coli [7]
1 | CC(C)C[C@@H]1NC(=O)[C@H](C(C)C)NC(=O)[C@@](C)(NC(=O)[C@H](C)NC(=O)[C@H](CCCCN)NC(=O)CNC(=O)[C@H](Cc2ccccc2)NC(=O)[C@H](CCCCN)NC(=O)[C@H](CCCCN)NC(=O)[C@H](CCCCN)NC(=O)[C@H](CO)NC(=O)[C@H](Cc2c[nH]cn2)NC(=O)[C@]2(C)CCCC=CCCC[C@](C)(NC(=O)CN)C(=O)NCC(=O)N[C@@H](CCCCN)C(=O)N[C@@H](Cc3ccccc3)C(=O)N2)CCCC=CCCC[C@@](C)(C(=O)N[C@@H](C)C(=O)N[C@@H](CCCCN)C(=O)N[C@@H](CCCCN)C(N)=O)NC(=O)[C@H](CCC(=O)O)NC1=O [compound 12] (H-G[S5]GKF[S5]HSKKKFGKA[S5]VLE[S5]AKK-NH2; staple 2-6, 16-20) | 4 µg/mL | 2 µg/mL | ~200 µg/mL (≈ 77.3 µM) | ~200 µg/mL (≈ 77.3 µM) | >64 µg/mL | 4 µg/mL | 2 µg/mL
2 | CC(C)[C@@H]1NC(=O)[C@@](C)(NC(=O)[C@H](C)NC(=O)[C@H](CCCCN)NC(=O)CNC(=O)[C@H](Cc2ccccc2)NC(=O)[C@H](CCCCN)NC(=O)[C@H](CCCCN)NC(=O)[C@H](CCCCN)NC(=O)[C@H](CO)NC(=O)[C@H](Cc2c[nH]cn2)NC(=O)[C@]2(C)CCCC=CCCC[C@](C)(NC(=O)CN)C(=O)NCC(=O)N[C@@H](CCCCN)C(=O)N[C@@H](Cc3ccccc3)C(=O)N2)CCCC=CCCC[C@@](C)(C(=O)N[C@@H](C)C(=O)N[C@@H](CCCCN)C(=O)N[C@@H](CCCCN)C(N)=O)NC(=O)[C@H](CCC(=O)O)NC(=O)[C@H](Cc2ccc(O)cc2)NC1=O [compound 13] (H-G[S5]GKF[S5]HSKKKFGKA[S5]VYE[S5]AKK-NH2; staple 2-6, 16-20) | 8 µg/mL | 2 µg/mL | > 200 µg/mL | > 200 µg/mL | >64 µg/mL | 4 µg/mL | 3 µg/mL
3 | CC(C)[C@@H]1NC(=O)[C@@](C)(NC(=O)[C@H](C)NC(=O)[C@H](CCCCN)NC(=O)CNC(=O)[C@H](Cc2ccccc2)NC(=O)[C@H](CCCCN)NC(=O)[C@H](CCCCN)NC(=O)[C@H](CCCCN)NC(=O)[C@H](CO)NC(=O)[C@H](Cc2c[nH]cn2)NC(=O)[C@]2(C)CCCC=CCCC[C@](C)(NC(=O)CN)C(=O)NCC(=O)N[C@@H](CCCCN)C(=O)N[C@@H](Cc3ccccc3)C(=O)N2)CCCC=CCCC[C@@](C)(C(=O)N[C@@H](C)C(=O)N[C@@H](CCCCN)C(=O)N[C@@H](CCCCN)C(N)=O)NC(=O)[C@H](CCC(=O)O)NC(=O)[C@H](Cc2ccccc2)NC1=O [compound 14] (H-G[S5]GKF[S5]HSKKKFGKA[S5]VFE[S5]AKK-NH2; staple 2-6, 16-20) | 4 µg/mL | 2 µg/mL | 214 µg/mL (≈ 81.6 µM) | 222 µg/mL (≈ 84.7 µM) | >64 µg/mL | 4 µg/mL | 2 µg/mL
4 | CC(C)[C@@H]1NC(=O)[C@@](C)(NC(=O)[C@H](C)NC(=O)[C@H](CCCCN)NC(=O)CNC(=O)[C@H](Cc2ccccc2)NC(=O)[C@H](CCCCN)NC(=O)[C@H](CCCCN)NC(=O)[C@H](CCCCN)NC(=O)[C@H](CO)NC(=O)[C@H](Cc2c[nH]cn2)NC(=O)[C@]2(C)CCCC=CCCC[C@](C)(NC(=O)CN)C(=O)NCC(=O)N[C@@H](CCCCN)C(=O)N[C@@H](Cc3ccccc3)C(=O)N2)CCCC=CCCC[C@@](C)(C(=O)N[C@@H](C)C(=O)N[C@@H](CCCCN)C(=O)N[C@@H](CCCCN)C(N)=O)NC(=O)[C@H](CCC(=O)O)NC(=O)[C@H]([C@@H](C)O)NC1=O [compound 15] (H-G[S5]GKF[S5]HSKKKFGKA[S5]VTE[S5]AKK-NH2; staple 2-6, 16-20) | 16 µg/mL | 2 µg/mL | > 200 µg/mL | > 200 µg/mL | >64 µg/mL | 8 µg/mL | 6 µg/mL
5 | CC(C)[C@@H]1NC(=O)[C@@](C)(NC(=O)[C@H](C)NC(=O)[C@H](CCCCN)NC(=O)CNC(=O)[C@H](Cc2ccccc2)NC(=O)[C@H](CCCCN)NC(=O)[C@H](CCCCN)NC(=O)[C@H](CCCCN)NC(=O)[C@H](CO)NC(=O)[C@H](Cc2c[nH]cn2)NC(=O)[C@]2(C)CCCC=CCCC[C@](C)(NC(=O)CN)C(=O)NCC(=O)N[C@@H](CCCCN)C(=O)N[C@@H](Cc3ccccc3)C(=O)N2)CCCC=CCCC[C@@](C)(C(=O)N[C@@H](C)C(=O)N[C@@H](CCCCN)C(=O)N[C@@H](CCCCN)C(N)=O)NC(=O)[C@H](CC(=O)O)NC(=O)CNC1=O [compound 16] (H-G[S5]GKF[S5]HSKKKFGKA[S5]VGD[S5]AKK-NH2; staple 2-6, 16-20) | >64 µg/mL | 4 µg/mL | > 200 µg/mL | > 200 µg/mL | >64 µg/mL | 16 µg/mL | 12 µg/mL
6 | CC(C)[C@@H]1NC(=O)[C@@](C)(NC(=O)[C@H](C)NC(=O)[C@H](CCCCN)NC(=O)CNC(=O)[C@H](Cc2ccccc2)NC(=O)[C@H](CCCCN)NC(=O)[C@H](CCCCN)NC(=O)[C@H](CCCCN)NC(=O)[C@H](CO)NC(=O)[C@H](Cc2c[nH]cn2)NC(=O)[C@]2(C)CCCC=CCCC[C@](C)(NC(=O)CN)C(=O)NCC(=O)N[C@@H](CCCCN)C(=O)N[C@@H](Cc3ccccc3)C(=O)N2)CCCC=CCCC[C@@](C)(C(=O)N[C@@H](C)C(=O)N[C@@H](CCCCN)C(=O)N[C@@H](CCCCN)C(N)=O)NC(=O)[C@H](CCC(N)=O)NC(=O)CNC1=O [compound 17] (H-G[S5]GKF[S5]HSKKKFGKA[S5]VGQ[S5]AKK-NH2; staple 2-6, 16-20) | 32 µg/mL | 2 µg/mL | ~180 µg/mL (≈ 71.1 µM) | > 200 µg/mL | >64 µg/mL | 4 µg/mL | 3 µg/mL
7 | CC(C)[C@@H]1NC(=O)[C@@](C)(NC(=O)[C@H](C)NC(=O)[C@H](CCCCN)NC(=O)CNC(=O)[C@H](Cc2ccccc2)NC(=O)[C@H](CCCCN)NC(=O)[C@H](CCCCN)NC(=O)[C@H](CCCCN)NC(=O)[C@H](CO)NC(=O)[C@H](Cc2c[nH]cn2)NC(=O)[C@]2(C)CCCC=CCCC[C@](C)(NC(=O)CN)C(=O)NCC(=O)N[C@@H](CCCCN)C(=O)N[C@@H](Cc3ccccc3)C(=O)N2)CCCC=CCCC[C@@](C)(C(=O)N[C@@H](C)C(=O)N[C@@H](CCCCN)C(=O)N[C@@H](CCCCN)C(N)=O)NC(=O)[C@H](CC(N)=O)NC(=O)CNC1=O [compound 18] (H-G[S5]GKF[S5]HSKKKFGKA[S5]VGN[S5]AKK-NH2; staple 2-6, 16-20) | 64 µg/mL | 2 µg/mL | ~200 µg/mL (≈ 79.5 µM) | > 200 µg/mL | >64 µg/mL | 4 µg/mL | 4 µg/mL
